Data on 18 compounds can be found in ChEMBL document CHEMBL1140041, “Flavylium salts as in vitro precursors of potent ligands to brain GABA-A receptors” (Bioorg Med Chem Lett, 2008).

The source made the active and inactive calls. The rule behind the calls is not given here.

Holding throughout (assay type): cell membranes
The nature of test [1]: Displacement of [3H]flumazenil from GABAA receptor in Wistar rat cortical membrane preincubated for 15 mins.
The nature of test [2]: Displacement of [3H]flumazenil from GABAA receptor in Wistar rat cortical membrane preincubated for 24 hrs.
Test [3] in a line: Displacement of [3H]flumazenil from GABAA receptor in Wistar rat cortical membrane.
The species entered for another test is Rattus norvegicus. Kind of test: Displacement of [3H]flumazenil from GABAA receptor in Wistar rat cortical membrane at 10 uM.

On to `COc1ccc(-c2ccc3cc(Br)ccc3[o+]2)cc1`, for which the Ki in test [1] worked out at 66 nM; in test [2] it was 66 nM; in test [3] it was 140 nM. Consider `COc1ccc(-c2ccc3ccccc3[o+]2)cc1OC`, for which the outcome in the test listed under Rattus norvegicus was inactive. Compound `COc1ccc2[o+]c(-c3ccc(O)cc3)ccc2c1` registered a Ki in test [3] of 160 nM. In the case of `Oc1ccc(-c2ccc3cc(O)ccc3[o+]2)cc1`, the Ki in test [3] came out at 1500 nM.

`COc1ccc(C(=O)/C=C/c2cc(OC)ccc2O)cc1` displayed a Ki in test [2] of 28 nM.

On to `COc1ccc(-c2ccc3cc(OC)c(O)cc3[o+]2)cc1`, for which the Ki in test [3] was 7800 nM. `COc1ccc(-c2ccc3cc(OC)ccc3[o+]2)cc1`: the figures for the Ki in test [1], in test [2] and in test [3] were 18 nM, 18 nM and 60 nM, respectively. As to `Oc1ccc2ccc(-c3ccccc3)[o+]c2c1`, in test [3], the affinity corresponds to a Ki of 260 nM. Still for that read-out and setting: the value for `COc1ccc(-c2ccc3ccccc3[o+]2)cc1` was 480 nM; that for `COc1ccc(-c2ccc3ccc(OC)cc3[o+]2)cc1` was 1200 nM. `COc1cc(-c2ccc3ccccc3[o+]2)cc(OC)c1OC`: the result in the test listed under Rattus norvegicus was inactive. `Oc1ccc(-c2ccc3ccc(O)cc3[o+]2)cc1` displayed a Ki in test [3] of 280 nM.

Regarding `Oc1ccc(-c2ccc3cccc(O)c3[o+]2)cc1`, the result in the test filed under Rattus norvegicus was inactive. For the compound `COc1ccc(-c2ccc3cc(O)ccc3[o+]2)cc1`, in test [3], affinity was put at a Ki of 320 nM. The same measure, in the same setting: the value for `COc1ccc2ccc(-c3ccccc3)[o+]c2c1` was 1800 nM. For `Oc1ccc(-c2ccc3ccc(O)c(O)c3[o+]2)cc1`, the result in the test filed under Rattus norvegicus was inactive. The compound `COc1ccc2[o+]c(-c3ccccc3)ccc2c1` had a Ki in test [3] of 180 nM.

Turning to `COc1ccc2[o+]c(-c3ccc(OC)c(OC)c3)ccc2c1`, in the test listed under Rattus norvegicus, the result was inactive.
